The record followed here is ChEMBL document CHEMBL4393730, “Thiazolidinedione and thiazole derivatives potentiate norfloxacin activity against NorA efflux pump over expression in Staphylococcus aureus 1199B strains” (Bioorg Med Chem, 2019).

Some results are limits rather than exact numbers.

Series [1] relates to Staphylococcus aureus. Briefly: Antibacterial activity against wild type Staphylococcus aureus 1199 devoid of norA efflux pump assessed as norfloxacin MIC measured after 24 hrs by broth microdilution method (reference value: 64 +/- 1 microg/ml). It is filed as functional. The settings on record: Staphylococcus aureus, 1199, 24 h.
The subject of series [2] is Staphylococcus aureus. Kind of series: Antibacterial activity against wild type Staphylococcus aureus 1199 devoid of norA efflux pump assessed as reduction in norfloxacin MIC measured after 24 hrs by broth microdilution method relative to norfloxacin. The class given is functional. (In general: Dilution methods test growth across graded concentrations, often in twofold steps.)

The test system of series [3] is Staphylococcus aureus. Briefly: Antibacterial activity against wild type Staphylococcus aureus 1199 devoid of NorA efflux pump measured after 24 hrs by broth microdilution method. The class given is functional. The settings on record: Staphylococcus aureus, 1199, 24 h.
Series [4] concerns the target T1, Quinolone resistance protein NorA (Staphylococcus aureus) (UniProt P0A0J7).
T1 sequence (whole entry): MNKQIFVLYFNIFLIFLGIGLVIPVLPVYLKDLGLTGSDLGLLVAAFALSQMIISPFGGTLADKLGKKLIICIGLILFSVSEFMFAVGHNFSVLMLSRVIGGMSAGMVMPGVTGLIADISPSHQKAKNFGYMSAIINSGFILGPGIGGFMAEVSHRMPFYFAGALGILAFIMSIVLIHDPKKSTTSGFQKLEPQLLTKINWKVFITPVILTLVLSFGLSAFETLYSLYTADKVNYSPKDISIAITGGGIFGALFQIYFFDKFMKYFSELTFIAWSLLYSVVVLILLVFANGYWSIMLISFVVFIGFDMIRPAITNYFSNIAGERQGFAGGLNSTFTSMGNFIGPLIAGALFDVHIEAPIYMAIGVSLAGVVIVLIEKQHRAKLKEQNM
Kind of series: Inhibition of NorA efflux pump in multidrug resistant Staphylococcus aureus 1199B mutant assessed as norfloxacin MIC measured after 24 hrs by broth microdilution method (reference value: 256 +/- 1 microg/ml).

The nature of series [5]: Cytotoxicity against mouse L929 cells assessed as cell growth inhibition at 50 ug/ml measured after 72 hrs by MTT method relative to control. The class given is cell-based. The settings on record: read-out: GI. For orientation: Tetrazolium dyes change colour on reduction, which living cells bring about.
In series [6] the test system is Staphylococcus aureus. Kind of series: Antibacterial activity against multidrug resistant Staphylococcus aureus 1199B mutant strain carrying NorA efflux pump assessed as growth inhibition measured after 24 hrs by broth microdilution method. It is filed as functional.
Series [7] addresses T1, Quinolone resistance protein NorA (Staphylococcus aureus). Kind of series: Inhibition of NorA efflux pump in multidrug resistant Staphylococcus aureus 1199B mutant assessed as reduction in norfloxacin MIC measured after 24 hrs by broth microdilution method relative to norfloxacin.

For `COc1ccc(Br)cc1/C=N/Nc1nc(-c2ccc(Br)cc2)cs1`, the MIC in series [1] is 16 µg/mL; in series [3], more than 1020 µg/mL; in series [4], 64 µg/mL; in series [6], more than 1020 µg/mL. In addition, the “fold change (FC)” value in series [2] and in series [7] was 3 in each case. For the same compound, the inhibition at 72 h, 50 ug/ml in series [5] amounted to 17.3%.

On to `COc1ccc(Br)cc1/C=N/Nc1nc(-c2ccc(-c3ccccc3)cc2)cs1`, for which the MIC was 1020 µg/mL in series [1], more than 1020 µg/mL in series [3], 1020 µg/mL in series [4] and more than 1020 µg/mL in series [6]. Moreover, in series [5], the inhibition at 72 h, 50 ug/ml was 15%.

As to `COc1ccc(Br)cc1/C=N/Nc1nc(-c2ccc(Cl)cc2)cs1`, the MIC is 0.63 µg/mL in series [1], more than 1020 µg/mL in series [3], 40.3 µg/mL in series [4] and more than 1020 µg/mL in series [6]. The “fold change (FC)” value in series [2] and in series [7] was 3 each time. Moreover, the inhibition at 72 h, 50 ug/ml in series [5] came out at 30.1%.

With `COc1ccc(Br)cc1/C=N/Nc1nc(-c2ccccc2)cs1`, the MIC is 0.5 µg/mL in series [1], more than 1020 µg/mL in series [3], 50.8 µg/mL in series [4] and more than 1020 µg/mL in series [6]. For the same compound, the “fold change (FC)” value in series [2] and in series [7] was 3 in each case. Moreover, the inhibition at 72 h, 50 ug/ml in series [5] turned out to be 24.4%.

`COc1ccc(Br)cc1/C=N/Nc1nc(-c2ccc([N+](=O)[O-])cc2)cs1`: the MIC is 5 µg/mL in series [1], more than 1020 µg/mL in series [3], 128 µg/mL in series [4] and more than 1020 µg/mL in series [6]. In series [5], the inhibition at 72 h, 50 ug/ml was 39.9%.

With `COc1ccc(Br)cc1/C=N/Nc1nc(-c2ccc(F)cc2)cs1`, the MIC is 1020 µg/mL in series [1], more than 1020 µg/mL in series [3], 1020 µg/mL in series [4] and more than 1020 µg/mL in series [6]. The inhibition at 72 h, 50 ug/ml in series [5] turned out to be 31.2%.
